These results are taken from patent publication US20070053984A1, “Topical gels compositions” (priority 2005, published 2007).

For data set [1], the system named is pseudofolliculitis barbae (PFB). Briefly: 10-week double blind, placebo-controlled, cross-over clinical trial in PFB. As to conditions: 15% in 60% alcohol, 1% ULTREZ 10, 24% water; PFB subjects. In kind it is in vivo, human. The text has this:
PFB efficacy is examined by a 10-week double blind, placebo-controlled, cross-over clinical trial. […] Papules, pustules, and ingrown hairs as defined below are counted and recorded. The primary objectives of this study are: • To determine the efficacy of various NSAID compositions applied at various intervals ranging from every other day to twice per day for five weeks in reducing the signs and symptoms of PFB; and • To determine the safety and tolerability of the various NSAID compositions. Papules, pustules, and ingrown hairs as defined below are counted and recorded. Lesions are counted on the neck, lower left and right cheeks, and jaw line (beard area). The same qualified physician completes the assessment at each visit. Each assessment is performed independent of previous assessments. Subjects have a total of at least 10 (for moderate) of 2 (for mild) follicular papules, pustules, or ingrown hairs at the Baseline Visit to be admitted to the study. Inflammatory and/or nodulocystic lesions, erythema, and hyperpigmentation are assessed according to the following six-point Likert (categorical) scale: • 0 None: […] Rare noninflammatory lesions present (lesions must be resolving and may be hyperpigmented, though not pink/red). Barely perceptible elevation (discernable by touch only). • 2 Mild: Noninflammatory lesions predominate, with few inflammatory papules/pustules. Light red color. Visible but mild elevation. No nodulocystic lesions. • 3 Moderate: Some noninflammatory lesions are present with multiple inflammatory lesions evident. Definite lesion redness and elevation. There may or may not be one small nodulocystic lesion. • 4 Severe: Highly inflammatory lesions predominate. Deep intense red color. Marked dermal swelling and in duration in widespread areas. There may or may not be a few nodulocystic lesions. • 5 Very Severe: Many nodulocystic lesions. Results are recorded in the source document and on the appropriate CRF. The same qualified physician will complete the assessment at each visit. Each assessment should be performed independent of previous assessments. Subjects must have a rating of at least moderate (3) at the Baseline Visit to be admitted to the study. All subjects are asked to evaluate specific PFB symptoms of itch, pain, and shaving discomfort, as well as the overall condition of their PFB at the Baseline, and weekly thereafter (“Subject's Assessment of Symptoms”). […] Global Assessment of Improvement. Subjects are asked to compare the overall condition of their PFB at the week 2, 4, and 6 visits with the overall condition before treatment using the following five-point Likert (categorical) scale: • 2 Overall condition and shaving comfort much better than before treatment. • 1 Overall condition and shaving comfort slightly better than before treatment. • 0 Overall condition and shaving comfort unchanged, same as before treatment. • −1 Overall condition and shaving comfort slightly worse than before treatment. • […] than before treatment. Each assessment is performed independent of previous assessments. The prodrug compositions are tested on PFB subjects according to Example 22 including pharmacokinetic analysis.

The test system of data set [2] is skin of minipigs. Briefly: C14-labeled compositions applied to skin of minipigs, punch biopsies and serum samples. As to conditions: 15% in 60% alcohol, 1% ULTREZ 10, 24% water; for Diffusion Rate (1 = high, 5 = low): 0.2 gm per cm^2 skin, biopsies 30 seconds to 24 hours; for Systemic Levels (1 = high, 5 = low): serum samples.
Data set [3] has as its system skin of minipigs. As to conditions: minipig, in vivo.
Data set [4] can be described thus: Prodrug (ibuprofen ethyl ester) generation upon storage, HPLC. In kind it is physicochemical. As to conditions: compositions similar to 1a, presence or absence of salicylic acid. Here is the method: It has been discovered that, in one embodiment, compositions of the present invention, upon storage, result in the generation of a prodrug form of the active ingredient. Such prodrug formation results from reaction of a carboxylic acid group of the active drug with the alcoholic solvent to form an ester linkage.
HPLC analysis was performed on composition la stored for 3 months at 25° C. A new peak (i.e., the prodrug) distinct from the ibuprofen peak was detected within the chromatographic profile.
Next, two grams of composition 1a were diluted in twenty-five milliliters of 50:50) water:acetonitrile. The solution was centrifuged and the supernatant collected or analysis.
Chromatography was conducted as follows: • Pumps: Hewlett Packard Model 1100 Binary Systems • Solvent A: Water • Solvent B: Acetonitrile • Gradient: Start 40% B • Raise to 60% B at 20 minutes • Raise to 90% B at 40 minutes • Flow Rate: 1.0 ml/min • Stationary Phase ZORBAX® CS (4.6×150 mm) • Column Temperature: 25 C • Injection volume […]
Sequential detection was performed by UV absorbance using an HP diode array detector followed by ESI-MS […] a Sciex QSTAR®/Pulsar quadrupole-TOF mass spectrometer operating in either the positive and negative ion modes.

Where two headings read alike, the source gives them in different places.

On to `CC(C)Cc1ccc(C(C)C(=O)OC(C)C)cc1` (stereo not drawn) [ibuprofen isopropyl ester], for which, in data set [1], the “Efficacy (1 = high, 5 = low)” value turned out to be 1. In addition, in the data set with skin of minipigs [2], the “Diffusion Rate (1 = high, 5 = low)” value was found to be 1 and the “Systemic Levels (1 = high, 5 = low)” value was determined as 5.

Consider `CCOC(=O)C(C)c1cccc(C(=O)c2ccccc2)c1` (stereo not drawn) [ketoprofen ethylester], for which, in data set [1], the “Efficacy (1 = high, 5 = low)” value turned out to be 3. Further, in the data set on skin of minipigs [3], the “Diffusion Rate (1 = high, 5 = low)” value is listed as 3 and the “Systemic Levels (1 = high, 5 = low)” value stood at 3.

`CC(C)OC(=O)C(C)c1cccc(C(=O)c2ccccc2)c1` (stereo not drawn) [ketoprofen isopropyl ester]: the “Efficacy (1 = high, 5 = low)” value in data set [1] amounted to 3. Besides, in the data set on skin of minipigs [2], the “Diffusion Rate (1 = high, 5 = low)” value came out at 3 and the “Systemic Levels (1 = high, 5 = low)” value stood at 3.

Take `CC(C(=O)O)c1cccc(C(=O)c2ccccc2)c1` (stereo not drawn) [ketoprofen, reference compound]: the “Efficacy (1 = high, 5 = low)” value in data set [1] came out at 5. Besides, the “Systemic Levels (1 = high, 5 = low)” value in the data set on skin of minipigs [2] is given as 2.

Take `O=C(O)c1ccccc1O` [salicylic acid]: the “effect on rate of prodrug formation” value in data set [4] is on record as “increases the rate of prodrug formation”.

With “ethylisobutylphenyl-propionate [ibuprofen ethylester]”, the “Efficacy (1 = high, 5 = low)” value in data set [1] came out at 2. In the data set with skin of minipigs [2], the “Diffusion Rate (1 = high, 5 = low)” value came to 2 and the “Systemic Levels (1 = high, 5 = low)” value worked out at 4.
